According to patent publication US9096615B2, “Bridged bicyclic amino thiazine dioxide compounds as inhibitors of beta-secretase and methods of use thereof” (AMGEN INC., priority 2013, dated 2015):
pIC50: −log10 of the molar value. Read-outs that look alike come from different tables or passages of the source.

What was measured:
[1] = tested on: Aβ40 in conditioned medium of cells stably expressing Amyloid Precursor Protein (APP); assay: In vitro BACE cell-based assay (HEK cell assay, Aβ40 sandwich ELISA); settings: Homo sapiens, HEK293; average IC50; read-out: BACE1 cell assay IC50
Summary of the method: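 APP-stable cells were cultured 24 h at 37 °C, then given compound as 10-point dose-response (top 100 μM or 10 μM; 0.1% DMSO final) for 24 h. Aβ40 in conditioned medium was measured by sandwich ELISA (pAb40 capture, biotinylated 6E10 detection, Eu time-resolved fluorescence). IC50 from percent inhibition versus concentration.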

Abeta 40 = assay: In vivo inhibition of beta-secretase: percent Abeta 40 reduction in CSF and brain; set-up: species or system rat; settings: 10 mpk, after 4 hrs
Description: In Vivo Inhibition of Beta-Secretase
Several animal models, including mouse, rat, dog, and monkey, may be used to screen for inhibition of beta-secretase activity in vivo following administration of a test compound sample. Animals used in this invention can be wild type, transgenic, or gene knockout animals. For example, the Tg2576 mouse model, prepared and conducted as described in Hsiao et al., 1996, Science 274, 99-102, and other non-transgenic or gene knockout animals are useful to analyze in vivo inhibition of Amyloid beta peptide (Abeta) production in the presence of inhibitory test compounds. Generally, 2 to 18 month old Tg2576 mice, gene knockout mice or non-transgenic animals are administered test compounds formulated in vehicles, such as cyclodextran, phosphate buffers, hydroxypropyl methylcellulose or other suitable vehicles. One to twenty-four hours following the administration of compound, animals are sacrificed, and brains as well as cerebrospinal fluid (CSF) and plasma are removed for analysis of A-beta levels and drug or test compound concentrations (Dovey et al., 2001, Journal of Neurochemistry, 76, 173-181) Beginning at time 0, animals are administered by oral gavage, or other means of delivery such as intravenous injection, an inhibitory test compound of up to 100 mg/kg in a standard, conventional formulation, such as 2% hydroxypropyl methylcellulose, 1% Tween80. A separate group of animals receive 2% hydroxypropyl methylcellulose, 1% Tween80 alone, containing no test compound, and serve as a vehicle-control group. At the end of the test period, animals are sacrificed and brain tissues, plasma or cerebrospinal fluid are collected. Brains are either homogenized in 10 volumes (w/v) of 0.2% diethylamine (DEA) in 50 mM NaCl (Best et al., 2005, Journal of Pharmacology and Experimental Therapeutics, 313, 902-908), or in 10 volumes of 0.5% TritonX-100 in Tris-buffered saline (pH at about 7.6). Homogenates are centrifuged at 355,000 g, 4° C. for 30 minutes. CSF or brain supernatants are then analyzed for the presence of A-beta peptide by specific sandwich ELISA assays based on ECL (Electrochemiluminescence) technology. For example, rat Abeta40 is measured using biotinylated-4G8 (Signet) as a capture antibody and Fab40 (an in-house antibody specific to the C-terminal of Abeta40) as a detection antibody. For example, 4 hours after administration of 30 mg/kg oral dose of the test compound in 2% hydroxypropyl methylcellulose, 1% Tween80 (pH2.2) to 200 g male Sprague Dawley rats, amyloid beta peptide levels are measured for reduction by X % and Y % in cerebrospinal fluid and brain, respectively, when compared to the levels measured in the vehicle-treated or control […].
Actual vehicles used: Oral: 2% HPMC, 1% Tween80, pH 2.2
• IV: 5% EtOH, 45% Propylene glycol in 5% Dextrose
The compounds of the invention may be shown to reduce the formation and/or deposition of amyloid beta peptide in the cerebrospinal fluid (CSF) as well as in the brain of a mouse or rat at either 3 mpk, 10 mpk or 30 mpk (mpk=mg compound per kg weight of the animal) dosing concentrations after 4 hrs.

Cathepsin D (Cat D) = target: T1, Cathepsin D (Cat D) (Homo sapiens, UniProt P07339); assay: In vitro enzymatic Cathepsin D (Cat D) FRET assay; type: biochemical; settings: average IC50; first procedure; read-out: CatD IC50
T1 construct: made in house; host or cells: CHO cells
T1 sequence (P07339 65-412, species assumed): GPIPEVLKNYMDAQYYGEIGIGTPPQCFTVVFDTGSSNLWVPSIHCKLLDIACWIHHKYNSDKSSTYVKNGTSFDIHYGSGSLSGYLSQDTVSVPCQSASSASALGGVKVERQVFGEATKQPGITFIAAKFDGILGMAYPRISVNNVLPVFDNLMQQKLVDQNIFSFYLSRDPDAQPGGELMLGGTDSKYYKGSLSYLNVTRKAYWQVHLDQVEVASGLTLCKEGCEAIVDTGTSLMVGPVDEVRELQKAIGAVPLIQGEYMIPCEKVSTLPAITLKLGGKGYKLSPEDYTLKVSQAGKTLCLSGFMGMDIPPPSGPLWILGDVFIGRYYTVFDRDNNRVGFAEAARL
Summary of the method: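 Recombinant human Cat D expressed in CHO cells, 9 nM, pre-incubated 1 h with inhibitor in 0.05 M citrate pH 3.5, 10% DMSO, 5 mM CHAPS. Reaction started with 20 nM FRET peptide substrate, run 1 h, stopped with Tris to neutral pH; fluorescence read at ex 500/em 580 nm.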

BACE1 = BACE1 (Homo sapiens, UniProt P56817); assay: In vitro enzymatic BACE FRET assay; type: biochemical; settings: average IC50; read-out: BACE1 Enzyme assay IC50
Sequence of BACE1 (P56817 46-501, species assumed): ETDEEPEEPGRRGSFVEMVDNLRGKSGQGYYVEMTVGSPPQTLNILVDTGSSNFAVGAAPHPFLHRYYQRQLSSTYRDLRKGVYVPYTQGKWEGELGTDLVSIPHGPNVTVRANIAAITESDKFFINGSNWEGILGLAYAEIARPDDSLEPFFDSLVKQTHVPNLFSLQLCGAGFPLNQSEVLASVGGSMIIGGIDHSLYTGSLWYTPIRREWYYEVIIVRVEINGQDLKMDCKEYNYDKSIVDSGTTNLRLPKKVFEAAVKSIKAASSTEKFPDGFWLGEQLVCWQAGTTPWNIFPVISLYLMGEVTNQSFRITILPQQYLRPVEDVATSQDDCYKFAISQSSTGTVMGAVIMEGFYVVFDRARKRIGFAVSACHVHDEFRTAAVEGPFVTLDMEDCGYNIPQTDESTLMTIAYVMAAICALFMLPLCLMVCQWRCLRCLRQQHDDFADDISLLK
Summary of the method: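 BACE (0.2 nM) pre-incubated 1 h with serially diluted inhibitor in 0.05 M acetate pH 4.2, 10% DMSO, 100 uM genapol; 50 nM FRET peptide substrate added, 1 h incubation. Stopped with Tris to neutral pH; fluorescence read (ex 488, […]).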

[2] = Abeta 40, rat CSF, read-out: % reduction of rat CSF levels at 10 pmk
[3] = Abeta 40, rat brain, read-out: % reduction of rat brain levels at 10 mpk

## C[C@]1(c2cc(Nc3ncnc4cc(Cl)cnc34)ccc2F)N=C(N)[C@@]2(CF)CC[C@@H]1S2(=O)=O [Example 98, N-(3-((1S,2R,5R)-4-amino-5-(fluoromethyl)-2-methyl-8,8-dioxido-8-thia-3-azabicyclo[3.2.1]oct-3-en-2-yl)-4-fluorophenyl)-7-chloropyrido[3,2-d]pyrimidin-4-amine]
[1]
  pIC50: 7.82
Abeta 40; [2]
  inhibition in vivo at 10 mg/kg: 70%
Abeta 40; [3]
  inhibition in vivo at 10 mg/kg: 74%
Cathepsin D (Cat D)
  pIC50: 3.54
BACE1
  pIC50: 8.30

## Cc1cc(C(F)F)cnc1C(=O)Nc1ccc(F)c([C@@]2(C)N=C(N)[C@@]3(CF)CC[C@@H]2S3(=O)=O)c1 [Example 103, N-(3-((1S,2R,5R)-4-amino-5-(fluoromethyl)-2-methyl-8,8-dioxido-8-thia-3-azabicyclo[3.2.1]oct-3-en-2-yl)-4-fluorophenyl)-5-(difluoromethyl)-3-methyl-2-pyridinecarboxamide]
[1]
  pIC50: 8.15
Abeta 40; [2]
  inhibition in vivo at 10 mg/kg: 62%
Abeta 40; [3]
  inhibition in vivo at 10 mg/kg: 58%
Cathepsin D (Cat D)
  pIC50: 3.05
BACE1
  pIC50: 8.05

## C[C@]1(c2cc(NC(=O)c3ncc(Cl)cc3Cl)ccc2F)N=C(N)[C@@]2(CF)CC[C@@H]1S2(=O)=O [Example 105, N-(3-((1S,2R,5R)-4-amino-5-(fluoromethyl)-2-methyl-8,8-dioxido-8-thia-3-azabicyclo[3.2.1]oct-3-en-2-yl)-4-fluorophenyl)-3,5-dichloro-2-pyridinecarboxamide]
[1]
  pIC50: 8.40
Abeta 40; [2]
  inhibition in vivo at 10 mg/kg: 74%
Abeta 40; [3]
  inhibition in vivo at 10 mg/kg: 71%
Cathepsin D (Cat D)
  pIC50: 3.03
BACE1
  pIC50: 8.70

## C[C@]1(c2cc(Nc3ncnc4cc(C(F)(F)F)cnc34)ccc2F)N=C(N)[C@@]2(CF)CC[C@@H]1S2(=O)=O [Example 107, N-(3-((1S,2R,5R)-4-amino-5-(fluoromethyl)-2-methyl-8,8-dioxido-8-thia-3-azabicyclo[3.2.1]oct-3-en-2-yl)-4-fluorophenyl)-7-(trifluoromethyl)pyrido[3,2-d]pyrimidin-4-amine]
[1]
  pIC50: 7.74
Abeta 40; [2]
  inhibition in vivo at 10 mg/kg: 53%
Abeta 40; [3]
  inhibition in vivo at 10 mg/kg: 43%
Cathepsin D (Cat D)
  pIC50: 3.73
BACE1
  pIC50: 8.00

## C[C@]1(c2cc(NC(=O)c3cnc(C(F)F)cn3)ccc2F)N=C(N)[C@@]2(CF)CC[C@@H]1S2(=O)=O [Example 109, N-(3-((1S,2R,5R)-4-amino-5-(fluoromethyl)-2-methyl-8,8-dioxido-8-thia-3-azabicyclo[3.2.1]oct-3-en-2-yl)-4-fluorophenyl)-5-(difluoromethyl)-2-pyrazinecarboxamide]
[1]
  pIC50: 8.15
Abeta 40; [2]
  inhibition in vivo at 10 mg/kg: 70%
Abeta 40; [3]
  inhibition in vivo at 10 mg/kg: 57%
Cathepsin D (Cat D)
  pIC50: 2.98
BACE1
  pIC50: 7.77

## C[C@]1(c2cc(NC(=O)c3ccc(C(F)(F)F)cn3)ccc2F)N=C(N)[C@@]2(CF)CC[C@@H]1S2(=O)=O [Example 110, N-(3-((1S,2R,5R)-4-amino-5-(fluoromethyl)-2-methyl-8,8-dioxido-8-thia-3-azabicyclo[3.2.1]oct-3-en-2-yl)-4-fluorophenyl)-5-(trifluoromethyl)-2-pyridinecarboxamide]
[1]
  pIC50: 8.30
Abeta 40; [2]
  inhibition in vivo at 10 mg/kg: 65%
Abeta 40; [3]
  inhibition in vivo at 10 mg/kg: 54%
Cathepsin D (Cat D)
  pIC50: 3.27
BACE1
  pIC50: 8.22

## Cc1cnc(COc2cnc3c(Nc4ccc(F)c([C@@]5(C)N=C(N)[C@@]6(C)CC[C@@H]5S6(=O)=O)c4)nccc3n2)o1 [Example 146, N-(3-((1S,2R,5R)-4-amino-2,5-dimethyl-8,8-dioxido-8-thia-3-azabicyclo[3.2.1]oct-3-en-2-yl)-4-fluorophenyl)-2-((5-methyl-1,3-oxazol-2-yl)methoxy)pyrido[3,4-b]pyrazin-5-amine]
[1]
  pIC50: 9.00
Abeta 40; [2]
  inhibition in vivo at 10 mg/kg: 35%
Abeta 40; [3]
  inhibition in vivo at 10 mg/kg: 13%
Cathepsin D (Cat D)
  pIC50: 3.38
BACE1
  pIC50: 9.00
